Consider 5 compounds from US20160108098A1, “THERAPEUTIC PEPTIDES” (GLAXOSMITHKLINE INTELLECTUAL PROPERTY DEVELOPMENT LIMITED, priority 2013, published 2016).

Where no end group is shown, it is not given here.

Experiment [1] in a line: cumulative food intake, lean mice (Model A), BioDaQ system. The class given is in vivo. As to conditions: lean C57BL/6 mice, 1 mg/kg subcutaneously, cumulative food intake after 6 h, relative to vehicle controls. The protocol: Cumulative food intake after 6 h was determined for the PYY analogs in either lean (Model A) or diet-induced obese (DIO) (Model B) C57BL/6 mice in a BioDaQ system for continuous monitoring of food intake (Research Diets Inc., New Brunswick, N.J.). […] Mice were placed singly into the BioDaQ cages and acclimatized for a minimum of 6 days and were allowed ad libitum access to food and water. Approximately 1 hour prior to lights-out, animals were dosed subcutaneously with either vehicle (20 mM Acetate buffer, pH 4.9 or 20% DMSO in water) or analogs dissolved in vehicle (1 mg/kg) (8 animals per group). Once all animals have been dosed, feeder gates were opened providing ad-libitum access to food. Continuous food intake was monitored and collected for 15 hours. […] P-values<0.05 were considered to indicate a significant difference between treatment groups.

In experiment [2] the target is T1, human Neuropeptide Y receptor type 2 (Homo sapiens, UniProt P49146).
T1 construct: expressed in transfected cells; host or cells: melanophores; own knowledge: in the cited Jayawickreme protocol these are Xenopus laevis melanophores transfected with the receptor
T1 sequence (P49146 1-381): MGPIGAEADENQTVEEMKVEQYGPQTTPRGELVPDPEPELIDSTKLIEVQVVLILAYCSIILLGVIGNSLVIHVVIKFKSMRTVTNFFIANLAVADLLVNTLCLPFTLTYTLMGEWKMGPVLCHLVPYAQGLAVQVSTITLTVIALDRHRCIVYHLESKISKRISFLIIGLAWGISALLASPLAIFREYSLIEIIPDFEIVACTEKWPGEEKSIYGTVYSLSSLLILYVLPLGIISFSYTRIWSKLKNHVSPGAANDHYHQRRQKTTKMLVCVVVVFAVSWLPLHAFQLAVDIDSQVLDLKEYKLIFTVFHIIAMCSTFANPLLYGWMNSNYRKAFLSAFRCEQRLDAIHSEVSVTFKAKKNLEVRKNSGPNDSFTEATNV
Kind of experiment: melanophore assay, potency at the human Neuropeptide Y receptor type 2. The class given is cell-based. As to conditions: read-out: hNPY Y2 pEC50 (converted).

For `CC(C)C[C@H](NC(=O)[C@H](CO)NC(=O)[C@H](C)NC(=O)[C@H](Cc1ccc(O)cc1)NC(=O)[C@H](Cc1ccc(O)cc1)NC(=O)[C@H](CCCNC(=N)N)NC(=O)[C@H](CC(N)=O)NC(=O)[C@H](CC(C)C)NC(=O)[C@H](CCC(=O)O)NC(=O)[C@H](CCC(=O)O)NC(=O)[C@@H]1CCCN1C(=O)[C@H](CO)NC(=O)[C@H](C)NC(=O)[C@H](CC(=O)O)NC(=O)[C@H](CCCCN)NC(=O)CNC(=O)[C@@H]1CCCN1C(=O)[C@H](C)NC(=O)[C@H](CCC(=O)O)NC(=O)[C@@H]1CCCN1C(=O)[C@H](CCCCN)NC(=O)[C@@H]1CCCN1)C(=O)N[C@@H](CCCNC(=N)N)C(=O)N[C@@H](CCCCN)C(=O)N[C@@H](Cc1ccc(O)cc1)C(=O)N[C@@H](CC(C)C)C(=O)N[C@@H](CC(N)=O)C(=O)N[C@@H](Cc1c[nH]c2ccccc12)C(=O)N[C@@H](CC(C)C)C(=O)N[C@H](C(=O)N[C@@H](CCCNC(=N)N)C(=O)N[C@@H](CCC(N)=O)C(=O)N[C@@H](CCCNC(=N)N)C(=O)N[C@@H](Cc1ccc(O)cc1)C(N)=O)[C@@H](C)O` [Example 2], the “% change in food intake vs vehicle, model A” value (shortened to “% change in food intake”) in experiment [1] is reported as −50%. In experiment [2], the EC50 was 0.158 nM.
Consider `CC(C)C[C@H](NC(=O)[C@H](CC(=O)O)NC(=O)[C@H](C)NC(=O)[C@H](Cc1ccc(O)cc1)NC(=O)[C@H](Cc1ccc(O)cc1)NC(=O)[C@H](CCCNC(=N)N)NC(=O)[C@H](CC(N)=O)NC(=O)[C@H](Cc1c[nH]c2ccccc12)NC(=O)[C@H](CCC(=O)O)NC(=O)[C@H](CCC(=O)O)NC(=O)[C@@H]1CCCN1C(=O)[C@H](CO)NC(=O)[C@H](C)NC(=O)[C@H](CC(=O)O)NC(=O)[C@H](CCCCN)NC(=O)CNC(=O)[C@@H]1CCCN1C(=O)[C@H](C)NC(=O)[C@H](CCC(=O)O)NC(=O)[C@@H]1CCCN1C(=O)[C@H](CCCCN)NC(=O)[C@@H]1CCCN1)C(=O)N[C@@H](CCCNC(=N)N)C(=O)N[C@@H](CCCCN)C(=O)N[C@@H](Cc1ccc(O)cc1)C(=O)N[C@@H](CC(C)C)C(=O)N[C@@H](CC(N)=O)C(=O)N[C@@H](Cc1c[nH]c2ccccc12)C(=O)N[C@@H](CC(C)C)C(=O)N[C@H](C(=O)N[C@@H](CCCNC(=N)N)C(=O)N[C@@H](CCC(N)=O)C(=O)N[C@@H](CCCNC(=N)N)C(=O)N[C@@H](Cc1ccc(O)cc1)C(N)=O)[C@@H](C)O` [Example 4], for which, in experiment [1], the “% change in food intake” value is −83%.
As to `CC(C)C[C@H](NC(=O)[C@H](CO)NC(=O)[C@H](C)NC(=O)[C@H](Cc1ccc(O)cc1)NC(=O)[C@H](Cc1ccc(O)cc1)NC(=O)[C@H](CCCNC(=N)N)NC(=O)[C@H](CC(N)=O)NC(=O)[C@H](Cc1c[nH]c2ccccc12)NC(=O)[C@H](CCC(=O)O)NC(=O)[C@H](CCC(=O)O)NC(=O)[C@@H]1CCCN1C(=O)[C@H](CO)NC(=O)[C@H](C)NC(=O)[C@H](CC(=O)O)NC(=O)[C@H](CCCCN)NC(=O)CNC(=O)[C@@H]1CCCN1C(=O)[C@H](C)NC(=O)[C@H](CCC(=O)O)NC(=O)[C@@H]1CCCN1C(=O)[C@H](CCCCN)NC(=O)[C@@H]1CCCN1)C(=O)N[C@@H](CCCNC(=N)N)C(=O)N[C@@H](CCCCN)C(=O)N[C@@H](Cc1ccc(O)cc1)C(=O)N[C@@H](CC(C)C)C(=O)N[C@@H](CC(N)=O)C(=O)N[C@@H](Cc1c[nH]c2ccccc12)C(=O)N[C@@H](CC(C)C)C(=O)N[C@H](C(=O)N[C@@H](CCCNC(=N)N)C(=O)N[C@@H](CCC(N)=O)C(=O)N[C@@H](CCCNC(=N)N)C(=O)N[C@@H](Cc1ccc(O)cc1)C(N)=O)[C@@H](C)O` [Example 6], in experiment [1], the “% change in food intake” value is reported as −88%. Besides, in experiment [2], the EC50 was 0.0794 nM.
As to “H-PQPESPEGNASPEDWACYHAAVRHYVNLITRQRY-NH2 [Peptide 18]”, in experiment [1], the “% change in food intake” value is recorded as -17%.
For “PEPEHPGCDASPEDQNKYHASLRKYLNWVTRQRY-NH2 [Peptide 10]”, the “% change in food intake” value in experiment [1] is -21%.
